Results reported in patent US20220249413A1, “SWELL 1 MODULATORS FOR TREATMENT OF NON-ALCOHOLIC FATTY LIVER DISEASE, IMMUNE DEFICIENCIES, MALE INFERTILITY AND VASCULAR DISEASES” (priority 2019, published 2022).

Target: T1, ICl,SWELL (Homo sapiens, UniProt Q8IWT6)
T1 construct: endogenous in cells; host or cells: HEK cells (printed 'BEK cells')
T1 sequence (Q8IWT6 1-810): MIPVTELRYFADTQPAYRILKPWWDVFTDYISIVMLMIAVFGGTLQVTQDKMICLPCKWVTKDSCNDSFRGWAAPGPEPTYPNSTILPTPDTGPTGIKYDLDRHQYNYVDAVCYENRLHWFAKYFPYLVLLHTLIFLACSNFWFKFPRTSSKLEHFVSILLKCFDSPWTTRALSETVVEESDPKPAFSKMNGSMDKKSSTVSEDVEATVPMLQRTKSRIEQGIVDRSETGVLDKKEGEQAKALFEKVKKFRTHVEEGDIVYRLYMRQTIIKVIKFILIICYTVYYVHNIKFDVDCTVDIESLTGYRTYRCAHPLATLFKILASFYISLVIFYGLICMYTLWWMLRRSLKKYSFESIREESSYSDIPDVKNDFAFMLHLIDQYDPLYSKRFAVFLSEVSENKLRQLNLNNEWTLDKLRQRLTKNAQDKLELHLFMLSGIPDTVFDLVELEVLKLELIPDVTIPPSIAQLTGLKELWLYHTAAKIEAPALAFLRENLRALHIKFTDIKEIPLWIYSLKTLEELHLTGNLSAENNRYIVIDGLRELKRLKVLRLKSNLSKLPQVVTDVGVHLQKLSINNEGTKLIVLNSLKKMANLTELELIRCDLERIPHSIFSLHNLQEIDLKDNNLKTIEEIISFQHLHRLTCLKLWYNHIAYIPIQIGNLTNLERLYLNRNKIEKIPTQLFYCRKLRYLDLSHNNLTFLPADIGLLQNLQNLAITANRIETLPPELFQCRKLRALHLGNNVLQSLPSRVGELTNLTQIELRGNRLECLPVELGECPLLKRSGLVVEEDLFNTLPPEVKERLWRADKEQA
Assay: ICl,SWELL patch-clamp upon hypotonic stimulation
Assay type: cell-based
Conditions: 10 μM Smod1, HEK cells (FIG. 2f)
Method: For Smod1 (DCPIB) mediated induction of SWELL1 and insulin signaling studies in 3T3-F442A preadipocytes, the cells were incubated with either vehicle (DMSO) or 10 μM Smod1 for 96 h. The cells were serum starved for 6 h (+DMSO or Smod1) and stimulated with 0, 3 and 10 nM insulin containing media (−DMSO or Smod1), as described above for 15 mins and the lysates were collected. In the case of 3T3-F442A adipocytes, the WT and KO cells were treated with either vehicle (DMSO) or 10 μM Smod1 following 7-11 days of differentiation for 96 h and then stimulated with 0 and 10 nM insulin for 15 min, as described above. Human embryonic kidney (HEK) cells were cultured and maintained in 90% DMEM (25 mM D-Glucose and 4 mM L-Glutamine) containing 10% fetal bovine serum (FBS) and 100 IU penicillin and 100 μg/ml streptomycin media.
Electrophysiology Patch-clamp recordings of β-cells and mature adipocytes were performed as described previously (Zhang et al., Nat Cell Biol, 19, 504-517, 2017; Kang et al., Nature Communications, 9, 367, 2018). 3T3-F442A WT and KO preadipocytes were prepared as described in the Cell culture section above. […] Recordings were measured using Axopatch 200B amplifier paired to a Digidata 1550 digitizer using pClamp 10.4 software. […] The images were further analyzed for band intensities using ImageJ software. […]

## CCCCC1(C2CCCC2)Cc2cc(OCCCC(=O)O)c(Cl)c(Cl)c2C1=O (stereo not shown) [Smod1, 4-[(2-Butyl-6,7-dichloro-2-cyclopentyl-2,3-dihydro-1-oxo-1H-inden-5-yl)oxy]butanoic acid]
  ICl,SWELL inward and outward current after hypotonic stimulation: inhibition
